From ChEMBL document CHEMBL1201862, “PubChem BioAssay data set” (2004)
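Method: 48-hour compound exposure of cells in 96-well plates, five concentrations, linear interpolation of endpoints. GI50 is the concentration that inhibits growth by half.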 Calls of active or inactive are those of the source. Cut-off read from the data, not from the text of the source: active = GI50 up to about 1.1 µM and inactive = higher.

What was measured:
Test in all cases: DTP human tumour cell line panel, 48 h
[1] = tested on: SNB-75
[2] = tested on: UO-31
[3] = tested on: SK-OV-3
[4] = tested on: UACC-62
[5] = tested on: MOLT-4
[6] = tested on: A498
[7] = tested on: NCI-H460
[8] = tested on: OVCAR-8
[9] = tested on: EKVX
[10] = tested on: RPMI-8226
[11] = tested on: MDA-MB-231
[12] = tested on: RXF 393
[13] = tested on: SNB-19
[14] = tested on: CCRF-CEM
[15] = tested on: 786-0
[16] = tested on: Hs-578T
[17] = tested on: SK-MEL-5
[18] = tested on: NCI/ADR-RES
[19] = tested on: ACHN
[20] = tested on: HL-60
[21] = tested on: NCI-H522
[22] = tested on: HOP-92
[23] = tested on: SF-268
[24] = tested on: KM12
[25] = tested on: DU-145
[26] = tested on: HCT-15
[27] = tested on: CAKI-1
[28] = tested on: BT-549
[29] = tested on: IGROV-1
[30] = tested on: OVCAR-5
[31] = tested on: NCI-H23
[32] = tested on: HT-29
[33] = tested on: MDA-N
[34] = tested on: SK-MEL-28
[35] = tested on: K562
[36] = tested on: PC-3
[37] = tested on: TK-10
[38] = tested on: HCT-116
[39] = tested on: A549
[40] = tested on: SF-295
[41] = tested on: SN12C
[42] = tested on: SW-620
[43] = tested on: U-251
[44] = tested on: OVCAR-4
[45] = tested on: COLO 205
[46] = tested on: NCI-H226
[47] = tested on: SF-539
[48] = tested on: T47D
[49] = tested on: MDA-MB-435
[50] = tested on: UACC-257
[51] = tested on: SK-MEL-2
[52] = tested on: Malme-3M
[53] = tested on: M14
[54] = tested on: SR
[55] = tested on: HCC 2998
[56] = tested on: HOP-62
[57] = tested on: OVCAR-3
[58] = tested on: LOX IMVI

Which results are given for `NCCC1([N+](=O)[O-])C=CN=CC1` (stereo unspecified)?
GI50 [1]: 6.98 µM (inactive); GI50 [2]: > 100 µM (inactive); GI50 [3]: > 100 µM (inactive); GI50 [4]: > 100 µM (inactive); GI50 [5]: > 100 µM (inactive); GI50 [6]: > 100 µM (inactive); GI50 [7]: > 100 µM (inactive); GI50 [8]: > 100 µM (inactive); GI50 [9]: > 100 µM (inactive); GI50 [10]: > 100 µM (inactive); GI50 [11]: > 100 µM (inactive); GI50 [12]: > 100 µM (inactive); GI50 [13]: > 100 µM (inactive); GI50 [14]: > 100 µM (inactive); GI50 [15]: > 100 µM (inactive); GI50 [16]: > 100 µM (inactive); GI50 [17]: > 100 µM (inactive); GI50 [18]: > 100 µM (inactive); GI50 [19]: > 100 µM (inactive); GI50 [20]: > 100 µM (inactive); GI50 [21]: > 100 µM (inactive); GI50 [22]: < 0.01 µM (active); GI50 [23]: > 100 µM (inactive); GI50 [24]: > 100 µM (inactive); GI50 [25]: > 100 µM (inactive); GI50 [26]: > 100 µM; GI50 [27]: > 100 µM (inactive); GI50 [28]: > 100 µM (inactive); GI50 [29]: > 100 µM (inactive); GI50 [30]: > 100 µM (inactive); GI50 [31]: > 100 µM (inactive); GI50 [32]: > 100 µM (inactive); GI50 [33]: > 100 µM (inactive); GI50 [34]: > 100 µM (inactive); GI50 [35]: > 100 µM (inactive); GI50 [36]: > 100 µM (inactive); GI50 [37]: > 100 µM (inactive); GI50 [38]: > 100 µM (inactive); GI50 [39]: > 100 µM (inactive); GI50 [40]: > 100 µM (inactive); GI50 [41]: > 100 µM (inactive); GI50 [42]: > 100 µM (inactive); GI50 [43]: > 100 µM (inactive); GI50 [44]: > 100 µM (inactive); GI50 [45]: > 100 µM (inactive); GI50 [46]: > 100 µM (inactive); GI50 [47]: > 100 µM (inactive); GI50 [48]: > 100 µM (inactive); GI50 [49]: > 100 µM (inactive); GI50 [50]: > 100 µM (inactive); GI50 [51]: > 100 µM (inactive); GI50 [52]: > 100 µM (inactive); GI50 [53]: > 100 µM (inactive); GI50 [54]: > 100 µM (inactive)

What does the source list for `Oc1ccccc1/C=N/c1ccc(-c2nc3ccccc3s2)cc1`?
GI50 [1]: 36.1 µM (inactive); GI50 [2]: 28.5 µM (inactive); GI50 [3]: 27.2 µM (inactive); GI50 [4]: 21.2 µM (inactive); GI50 [5]: 22.7 µM (inactive); GI50 [6]: 21.4 µM (inactive); GI50 [7]: 25 µM (inactive); GI50 [8]: 28.6 µM (inactive); GI50 [9]: 21.3 µM (inactive); GI50 [10]: 23.2 µM (inactive); GI50 [12]: 28.5 µM (inactive); GI50 [13]: 48.4 µM (inactive); GI50 [14]: 6.89 µM (inactive); GI50 [15]: 29.2 µM (inactive); GI50 [16]: 30.7 µM (inactive); GI50 [17]: 15.1 µM (inactive); GI50 [18]: 25.6 µM (inactive); GI50 [19]: 22.4 µM (inactive); GI50 [20]: 11.8 µM (inactive); GI50 [55]: 20.3 µM (inactive); GI50 [21]: 17.3 µM (inactive); GI50 [22]: 17.7 µM (inactive); GI50 [23]: 23.2 µM (inactive); GI50 [24]: 22 µM (inactive); GI50 [25]: 45.7 µM (inactive); GI50 [26]: 24.4 µM; GI50 [27]: 28.2 µM (inactive); GI50 [28]: 31.8 µM (inactive); GI50 [29]: 28.2 µM (inactive); GI50 [56]: 19.1 µM (inactive); GI50 [30]: 28.3 µM (inactive); GI50 [31]: 31.8 µM (inactive); GI50 [57]: 20.6 µM (inactive); GI50 [32]: 30.8 µM (inactive); GI50 [33]: 29.6 µM (inactive); GI50 [58]: 26.4 µM (inactive); GI50 [34]: 41.7 µM (inactive); GI50 [35]: 24.6 µM (inactive); GI50 [36]: 18.7 µM (inactive); GI50 [37]: 31.2 µM (inactive); GI50 [38]: 29.6 µM (inactive); GI50 [39]: 36.7 µM (inactive); GI50 [40]: 24.1 µM (inactive); GI50 [41]: 29.3 µM (inactive); GI50 [42]: 41.5 µM (inactive); GI50 [43]: 30.9 µM (inactive); GI50 [44]: 30.2 µM (inactive); GI50 [45]: 19.6 µM (inactive); GI50 [46]: 24.8 µM (inactive); GI50 [47]: 30.8 µM (inactive); GI50 [48]: 10.4 µM (inactive); GI50 [49]: 26.6 µM (inactive); GI50 [50]: 24 µM (inactive); GI50 [51]: 21.3 µM (inactive); GI50 [52]: 37.1 µM (inactive); GI50 [53]: 37.1 µM (inactive); GI50 [54]: 33.7 µM (inactive)
